# Patent US10889825B2, “Compositions and methods thereof for down-regulation of genes following oral delivery of an RNAi molecule bioencapsulated within plant cells” (THE TRUSTEES OF THE UNIVERSITY OF PENNSYLVANIA, priority 2015, dated 2021)
# System: Helicoverpa armigera
# Experiment: gossypol tolerance test, larvae on artificial diet supplemented with gossypol
# Type: in vivo
# Conditions: third-instar larvae
# Protocol: Cotton bollworm (Helicoverpa armigera) eggs were purchased from Benzon research laboratory. See the world wide web at benzonresearch.com/insectlist.htm. They were hatched at 25° C. and all the larvae were fed with the artificial diet (Southland Products Incorporated on the world wide web at tecinfo.com/˜southland/. All dishes were kept at 25° C. on a 14-h-day/10-h-night cycle. For the gossypol tolerance experiments, third instars larvae were transferred to the artificial diet supplemented with gossypol (0-4 mg) for 4 d and the increase in weight was recorded.
# Gossypol and related sesquiterpene biosynthesized in cotton are toxic to many organisms. However, most Helicoverpa insects resist gossypol because the P450 monooxygenases in the midgut of these insects permit them to tolerate the gossypol. Therefore, in order to suppress P450 gene, two step insect bioassay was conducted. In the first step, third-instar larvae of Helicoverpa armigera were fed on P450: RNAi expressed leaves for four days. Then, all these larvae were transferred to the following diet or leaves: artificial diet with 3 mg/g gossypol or without gossypol; cotton leaves with glands/glandless and wild-type tobacco leaves. Addition of gossypol in the artificial diet or in leaves affects the growth and development of the larvae (FIG. 3). […]
smiles,measurement,setting,value
Cc1cc2c(C(C)C)c(O)c(O)c(C=O)c2c(O)c1-c1c(C)cc2c(C(C)C)c(O)c(O)c(C=O)c2c1O [gossypol],net weight increase of larvae,higher concentrations (3-4 mg/g) of gossypol diet,15.1 to 55.4 mg
same,weight increases of larvae,low concentration gossypol diet (1-2 mg/g),163 to 190 mg
